# Experiments:
# [1] = Drug transport across human Caco-2 cells; type: in vitro ADME; details: pH 7.2, 37° C.; for Papp A→B at 10 µM: apical-to-basal, read-out: PEAB; for Papp B→A at 10 µM: basal-to-apical, read-out: PEBA
# Description: Assay for Determination of Drug Transport Across Human Caco-2 Cells
# The assay provides information on the potential of a compound to pass the cell membrane, on the extent of oral absorption as well as on whether the compound is actively transported by uptake and/or efflux transporters. For the measurement of permeability across polarized, confluent human cancer colon carcinoma cells 2 (Caco-2) cell monolayers grown on permeable filter supports are used as the in vitro absorption model.
# Apparent permeability coefficients (PE) of the compounds across the Caco-2 monolayers are measured (pH 7.2, 37° C.) in apical-to-basal (AB) (absorptive) and basal-to-apical (BA) (secretory) transport direction. AB permeability (PEAB) represents drug absorption from the intestine into the blood and BA permeability (PEBA) drug secretion from the blood back into the intestine via both passive permeability as well as active transport mechanisms mediated by efflux and uptake transporters that are expressed on the Caco-2 cells. The compounds are assigned to permeability/absorption classes by comparison of the AB permeabilities with the AB permeabilities of reference compounds with known in vitro permeability and oral absorption in the human. Identical or similar permeabilities in both transport directions indicate passive permeation, vectorial permeability points to additional active transport mechanisms. […] Active transport is concentration-dependently saturable.
# Caco-2 cells (1-2*10^5 cells/cm^2 area) are seeded on filter inserts (Costar transwell polycarbonate or PET filters, 0.4 μm pore size) and cultured (DMEM) for 10 to 25 days. Compounds are dissolved in appropriate solvent (like DMSO, 1-20 min stock solutions). Stock solutions are diluted with HTP-4 buffer (128.13 min NaCl, 5.36 min KCl, 1 mM MgSO4, 1.8 min CaCl2, 4.17 min NaHCO3, 1.19 min Na2HPO4×7H2O, 0.41 mM NaH2PO4×H2O, 15 min HEPES, 20 min glucose, pH 7.2) to prepare the transport solutions (typically 10 μM compound, final DMSO<=0.5%). The transport solution (TL) is applied to the apical or basolateral donor side for measuring A-B or B-A permeability (3 filter replicates), respectively. The receiver side contains HTP-4 buffer supplemented with 2% BSA. Samples are collected at the start and end of experiment from the donor and at various time intervals for up to 2 hours also from the receiver side for concentration measurement by LC-MS/MS or scintillation counting. Sampled receiver volumes are replaced with fresh receiver solution.
# [2] = biological target: T1, neutrophil elastase in human plasma (Homo sapiens, UniProt P08246); assay: Neutrophil elastase inhibitory activity in human plasma; type: biochemical; details: zymosan-stimulated human plasma, substrate MeOSuc-Ala-Ala-Pro-Val-AMC 250 μM
# T1 construct: The stimulated blood is centrifuged to generate the neutrophil elastase enriched plasma; from tissue; host or cells: plasma from zymosan-stimulated citrated whole blood of healthy human donors
# T1 sequence (P08246 30-267): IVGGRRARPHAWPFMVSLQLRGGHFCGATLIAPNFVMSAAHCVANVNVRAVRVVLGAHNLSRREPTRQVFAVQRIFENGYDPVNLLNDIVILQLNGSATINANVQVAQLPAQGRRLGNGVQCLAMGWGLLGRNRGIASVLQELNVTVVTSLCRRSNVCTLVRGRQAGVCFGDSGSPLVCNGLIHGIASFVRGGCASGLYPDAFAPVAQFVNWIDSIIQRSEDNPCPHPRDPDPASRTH
# Protocol: Assay for the Determination of Neutrophil Elastase Inhibitory Activity in Human Plasma
# Citrated blood from human healthy donors is mixed with zymosan suspension and incubated at room temperature. This leads to the stimulation of neutrophils and the release of neutrophil elastase into the plasma. The stimulated blood is centrifuged to generate the neutrophil elastase enriched plasma.
# • A single 45 ml blood sample is taken into a 50 ml tube containing citrate (3.13%, 5 mL) and the tube is gently inverted 4 times. • Immediately after blood sampling, zymosan working solution (5 mL) is added. • After the addition of zymosan working solution, the tubes are capped, mixed gently and incubated at 22° C. for 15 min on a shaker at 20 rpm. • Make 10 ml aliquots after the incubation time. • Centrifuge the 15 ml tubes at 800 g for 15 min at 4° C. in a Jouan centrifuge. • Harvest the plasma and make 1-5 ml aliquots. • Store the plasma at −80° C.
# A dose response curve is generated to calculate the EC50 of the inhibitor. The analysis of the data is performed by the calculation of the percentage of fluorescence in the presence of the test compound compared to the fluorescence of the vehicle control after subtracting the background fluorescence: An inhibitor of the neutrophil elastase enzyme will give values between 100% control (no inhibition) and 0% control (complete inhibition).
# [3] = Metabolic stability with human liver microsomes; type: in vitro ADME; details: pooled human liver microsomes, pH 7.6; human liver microsomes 1 mg/ml, 1 μM compound, 37° C., NADPH; read-out: t1/2 INVITRO
# Aqueous solubility = type: physicochemical; details: McIlvaine buffer pH 6.8 containing 2.5% DMSO, kinetic from dmso stock, McIlvaine buffer pH 6.8, 2.5% DMSO, 24 h shaking
# Protocol: Assay for Determination of Aqueous Solubility
# Starting from a 10 min DMSO stock solution, aliquots are diluted with acetonitrile/water (1/1) and McIlvaine buffer pH 6.8, respectively. After 24 h of shaking, the solutions or suspensions are filtered and analyzed by LC-UV. The amount dissolved in buffer is compared to the amount dissolved in the acetonitrile/water (1/1) solution. Solubility is measured from 0.001 to 0.125 mg/ml at a DMSO concentration of 2.5%. If more than 90% of the compound is dissolved in buffer, the value is marked with “>”.
# [4] = biological target: T2, Human neutrophil elastase (Homo sapiens, UniProt P08246); assay: Human Neutrophil Elastase Assay; type: biochemical; details: substrate MeOSuc-Ala-Ala-Pro-Val-AMC 250 μM, pH 7.5, room temperature
# T2 construct: purchased Calbiochem 324681
# T2 sequence (P08246 30-247 limits assumed): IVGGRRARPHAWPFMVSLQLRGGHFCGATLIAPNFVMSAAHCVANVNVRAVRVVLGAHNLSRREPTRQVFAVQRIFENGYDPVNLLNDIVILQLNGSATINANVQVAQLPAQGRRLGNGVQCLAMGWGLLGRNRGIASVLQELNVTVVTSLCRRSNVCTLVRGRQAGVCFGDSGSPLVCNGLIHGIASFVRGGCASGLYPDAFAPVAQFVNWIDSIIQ
# Description: Human Neutrophil Elastase Assay
Papp A→B at 10 µM [1] [×10⁻⁶ cm/s],Papp B→A at 10 µM [1] [×10⁻⁶ cm/s],EC50 [2] [nM],half-life at 1 μM [3] [h],solubility at 24 h (Aqueous solubility) [µg/mL],IC50 [4] [nM],Structure (SMILES)
4.1,58,< 1,0.967,65,< 1,"CN1C(=O)N(c2cccc(C(F)(F)F)c2)C2=C(C(=O)CCC2)C1c1ccc(C#N)cc1[S+](C)[O-] (single isomer, unassigned) [Example 2.1A, 3-Methanesulfinyl-4-[3-methyl-2,5-dioxo-1-(3-trifluoromethyl-phenyl)-1,2,3,4,5,6,7,8-octahydro-quinazolin-4-yl]-benzonitrile]"
10,120,2,2.17,62,1.1,CN1C(=O)N(c2cccc(C(F)(F)F)c2)C2=C(C(=O)CCC2)C1c1ccc(C#N)cc1S(=O)(=O)CCO (stereo not drawn) [Example 4.3]
3.9,68,1,> 2.17,72,< 1,"CS(=O)(=O)c1cc(C#N)ccc1C1C2=C(CCCC2=O)N(c2cccc(C(F)(F)F)c2)C(=O)N1CCO (stereo not drawn) [Example 6, 4-[3-(2-Hydroxy-ethyl)-2,5-dioxo-1-(3-trifluoromethyl-phenyl)-1,2,3,4,5,6,7,8-octahydro-quinazolin-4-yl]-3-methanesulfonyl-benzonitrile]"
